Laboratory results taken from patent US7432392B2, “Ester derivatives and medical use thereof” (Japan Tobacco Inc., priority 2003, dated 2008).

Assays:
[1] = molecular target: T1, Microsomal triglyceride transfer protein (MTP) from bovine liver (Bos taurus, UniProt P55156); assay: Inhibition of interliposomal triglyceride (TG) transfer activity by MTP; type: biochemical; conditions: MTP-mediated TG transfer between donor and acceptor liposomes, 37° C., one hour
T1 construct: the purified MTP was used for the test; from tissue; host or cells: bovine liver
T1 sequence (P55156 12-887): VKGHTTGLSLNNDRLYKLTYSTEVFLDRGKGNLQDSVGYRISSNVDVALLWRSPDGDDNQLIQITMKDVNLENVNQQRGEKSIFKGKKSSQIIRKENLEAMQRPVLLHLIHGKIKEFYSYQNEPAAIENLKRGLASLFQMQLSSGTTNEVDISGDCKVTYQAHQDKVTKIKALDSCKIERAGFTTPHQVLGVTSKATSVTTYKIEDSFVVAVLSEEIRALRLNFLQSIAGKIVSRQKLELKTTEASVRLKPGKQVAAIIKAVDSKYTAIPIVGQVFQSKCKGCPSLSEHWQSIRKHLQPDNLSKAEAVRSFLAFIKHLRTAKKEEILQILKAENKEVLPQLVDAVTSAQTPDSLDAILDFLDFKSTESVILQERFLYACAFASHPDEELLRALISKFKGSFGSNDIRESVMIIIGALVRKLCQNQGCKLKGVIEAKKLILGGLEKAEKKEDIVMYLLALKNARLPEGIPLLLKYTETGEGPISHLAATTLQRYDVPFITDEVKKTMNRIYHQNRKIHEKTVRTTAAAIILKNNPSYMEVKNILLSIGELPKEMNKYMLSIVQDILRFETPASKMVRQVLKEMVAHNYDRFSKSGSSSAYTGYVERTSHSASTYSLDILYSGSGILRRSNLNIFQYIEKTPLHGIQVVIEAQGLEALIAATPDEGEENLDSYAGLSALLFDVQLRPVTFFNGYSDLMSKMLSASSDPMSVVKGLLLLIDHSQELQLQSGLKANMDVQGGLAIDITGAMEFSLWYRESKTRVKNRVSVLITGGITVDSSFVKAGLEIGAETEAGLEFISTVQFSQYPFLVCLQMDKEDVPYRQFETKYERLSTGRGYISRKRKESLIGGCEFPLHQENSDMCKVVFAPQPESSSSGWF
T1 sequence (P05307 21-510 partner): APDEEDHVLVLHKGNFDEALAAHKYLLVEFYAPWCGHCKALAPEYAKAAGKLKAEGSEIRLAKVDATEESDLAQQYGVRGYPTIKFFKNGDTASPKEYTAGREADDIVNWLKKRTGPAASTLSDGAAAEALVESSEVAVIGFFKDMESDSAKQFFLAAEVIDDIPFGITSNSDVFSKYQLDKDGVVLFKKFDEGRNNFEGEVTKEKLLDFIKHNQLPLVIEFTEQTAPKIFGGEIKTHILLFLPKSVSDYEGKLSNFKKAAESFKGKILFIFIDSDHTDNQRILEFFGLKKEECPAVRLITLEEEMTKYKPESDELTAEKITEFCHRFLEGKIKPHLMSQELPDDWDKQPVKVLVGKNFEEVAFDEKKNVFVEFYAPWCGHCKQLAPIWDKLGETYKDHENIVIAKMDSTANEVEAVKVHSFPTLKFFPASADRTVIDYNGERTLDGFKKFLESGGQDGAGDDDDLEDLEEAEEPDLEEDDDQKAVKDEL
Description: Microsomal triglyceride transfer protein (MTP) from bovine liver was partially purified in such a way described below. A buffer (50 mM Tris, 250 mM sucrose, 1 mM EDTA, 0.02% NaN3 (pH 7.4)) for making a homogenate preparation was added to bovine liver, and the mixture was homogenated under ice-cooling, then centrifuged at 10,000×g (4° C., 30 minutes) The supernatant was adjusted to pH 5.1 with hydrochloric acid, and stirred for 30 minutes. The solution was further centrifuged at 10,000×g (4° C., 30 minutes), and 1 mM Tris buffer was added to the precipitated residue, and the mixture was adjusted to pH 8.6 with sodium hydroxide. After addition of 2.7 M ammonium sulfate solution, the mixture was stirred for 30 minutes, then centrifuged at 10,000×g (4° C., 40 minutes). The resulting supernatant was served as a crude extraction fraction of MTP and stored at −80° C. under freezing. In its practical use, the crude extraction fraction of MTP was purified by column chromatography on diethylaminoethyl (DEAE) Sepharose using FPLC (Fast Performance Liquid Chromatography) system, and the purified MTP was used for the test.
Small unilamellar-vesicle (SUV) liposome (donor, 0.25 mol % triolein, 5 mol % cardiolipin) labeled with ^14C-triolein and non-labeled SUV liposome (acceptor, 0.25 mol % triolein) were prepared. A fixed amount of donor and acceptor, and MTP were mixed with a sample dissolved in DMSO or with DMSO. The mixture was incubated in a 15 mM Tris hydrochloride buffer (pH 7.4) containing 40 mM sodium chloride, 1 mM EDTA (ethylenediaminetetraacetic acid), 0.02% NaN3 and 0.5% bovine serum albumin at 37° C. for one hour. After completion of the incubation, a suspension of DEAE cellulose (50% v/v) in 15 mM Tris hydrochloride buffer (pH 7.4) was added to the above solution, and the mixture was centrifuged to separate the donor and the acceptor. The radioactivity in the acceptor was measured by liquid scintillation counter. The value obtained by subtracting the radioactivity in the blank from the amount of radioactivity in the acceptor of a DMSO group was determined as MTP-mediated TG transfer activity, and it was compared with the value obtained by subtracting the radioactivity in the blank from the radioactivity in a sample group. The blank was prepared by adding 15 mM Tris-HCl buffer (pH 7.4) in place of MTP. Inhibition rate (%) was calculated from the values obtained according to the following equation.
Inhibition rate (%)=100×(1 minus ((radioactivity of sample group minus radioactivity of blank group)/(radioactivity of DMSO group minus radioactivity of blank group))). 50% Inhibition rate (IC50) was determined on the basis of the above equation.

[2] = test system: apolipoprotein B secretion from HepG2 cells; assay: Inhibition of apolipoprotein B secretion from HepG2 cells; type: cell-based; conditions: Homo sapiens, about 20 hours incubation, apo B in supernatant by ELISA
Description: HepG2 cells were suspended in Dulbecco's Modified Eagle's Medium (DMEM) (containing 10% fetal bovine serum, 100 units/mL penicillin and 100 μg/mL streptomycin), and placed on a 96-well plate (4×10^4 cells/well), then incubated for 24 hours. After removal of the medium, DMEM was replaced by a medium containing a sample dissolved in DMSO or a medium containing DMSO (concentration of DMSO: 0.5%) and incubation was further performed for about 20 hours, after which the supernatant was recovered, and concentration of apo B in the supernatant was assayed by Enzyme-Linked Immunosorbent Assay (ELISA)
ELISA was carried out as follows. Anti-human apo B monoclonal antibody (0.5 μg/well) diluted with a 50 mM sodium carbonate/sodium bicarbonate buffer was placed in a 96-well plate for ELISA, and allowed to stand at room temperature for 15 hours. After washing the plate, a blocking solution (250 μL/well) was placed in the well, and allowed to stand at room temperature for 1.5 hours. After washing the plate, a standard and a sample (100 μL/well) were placed in the well and allowed to stand at room temperature for 1.5 hours. The standard was prepared by adjusting the concentration of the purified human apo B with the DMEM to 0 to 250 ng/mL. After washing the plate, an anti-human apo B polyclonal antibody labeled with a horse radish peroxidase which was diluted in 1:1000 with DEME (100 μL/well) was added, and allowed to stand at room temperature for 1.5 hours. After washing the plate, 2,2-azinobis(3-ethylbenzothiazoline-6-sulfonic acid) solution (100 μL/well) was placed in the well, and allowed to stand at room temperature for 0.5 hour. The reaction was stopped by addition of 2% oxalic acid (100 μL/well), and absorbency at 405 nm was measured. Concentration of apo B in the sample was calculated on the basis of a standard curve of the standard. Inhibition rate (%) was calculated from the assayed values in accordance with the following equation. Inhibition rate (%)=100×(1 minus (concentration of apo B in sample group/concentration of apo B in DMSO group).
Based on the above equation, 50% inhibition concentration (IC50) was determined.

| Structure (SMILES) | IC50 [1] [µM] | IC50 [2] [µM] | melting point [°C] |
| --- | --- | --- | --- |
| CCOC(=O)C(COC(=O)Cc1cccc(NC(=O)c2ccccc2-c2ccc(C(F)(F)F)cc2)c1OC(C)=O)(C(=O)OCC)c1ccccc1 [Example 1-4] | 0.01 to 0.1 | < 10 | – |
| CCOC(=O)C(COC(=O)Cc1ccc(NC(=O)c2ccccc2-c2ccc(C(F)(F)F)cc2)c(OC(=O)CC)c1)(C(=O)OCC)c1ccccc1 [Example 1-2] | < 0.01 | < 1 | – |
| CCOC(=O)C(COC(=O)Cc1ccc(NC(=O)c2ccccc2-c2ccc(C(F)(F)F)cc2)c(OC(=O)COC)c1)(C(=O)OCC)c1ccccc1 [Example 1-3] | < 0.01 | < 1 | – |
| CCOC(=O)C(COC(=O)COc1ccc(NC(=O)c2ccccc2-c2ccc(C(F)(F)F)cc2)c(C(=O)N(C)C)c1)(C(=O)OCC)c1ccccc1 [Example 3-2, 2-(2-{3-Dimethylcarbamoyl-4-[(4′-trifluoromethylbiphenyl-2-carbonyl)amino]phenoxy}acetoxymethyl)-2-phenylmalonic acid diethyl ester] | < 0.01 | – | 132 to 138 |
| CCOC(=O)C(CCC(=O)Oc1cc(C(=O)N(C)C)c(NC(=O)c2ccccc2-c2ccc(C(F)(F)F)cc2)cc1F)(C(=O)OCC)c1ccccc1 [Example 3-6] | < 0.01 | – | – |
| CCOC(=O)C(COC(=O)Oc1c(F)cc(NC(=O)c2ccccc2-c2ccc(C(F)(F)F)cc2)c(OC)c1F)(C(=O)OCC)c1cccs1 [Example 2-48] | < 0.01 | – | – |
| CCOC(=O)C(COC(=O)Oc1ccc(NC(=O)c2ccc(C)nc2-c2ccc(C(F)(F)F)cc2)c(C(=O)N(C)C)c1)(C(=O)OCC)c1ccccn1 [Example 2-23] | < 0.01 | – | – |
| CCOC(=O)C(COC(=O)Oc1ccc(NC(=O)c2ccc(C)nc2-c2ccc(C(F)(F)F)cc2)c(C(=O)N(C)C)c1)(C(=O)OCC)c1ccccc1 [Example 2-19] | < 0.01 | – | – |
| CCOC(=O)C(COC(=O)Oc1c(F)cc(NC(=O)c2ccccc2-c2ccc(C(F)(F)F)cc2)c(OC(C)C)c1F)(C(=O)OCC)c1cccs1 [Example 2-52] | < 0.01 | – | – |
| CCOC(=O)C(COC(=O)Oc1c(F)cc(NC(=O)c2ccccc2-c2ccc(C(F)(F)F)cc2)c(C(=O)N(C)CCOC)c1F)(C(=O)OCC)c1cccs1 [Example 2-41] | < 0.01 | – | – |
| CCOC(=O)C(COC(=O)Oc1c(F)cc(NC(=O)c2ccccc2-c2ccc(C(F)(F)F)cc2)c(C(=O)N(C)C)c1F)(C(=O)OCC)c1cccs1 [Example 2-26] | < 0.01 | – | – |
| CCOC(=O)C(CCC(=O)Oc1c(F)cc(NC(=O)c2ccccc2-c2ccc(C(F)(F)F)cc2)c(C(=O)N(C)C)c1F)(C(=O)OCC)c1ccccc1 [Example 3-9] | < 0.01 | – | – |
| CCCN(C)C(=O)c1cc(OC(=O)OCC(C(=O)OCC)(C(=O)OCC)c2ccccc2)ccc1NC(=O)c1ccccc1-c1ccc(C(F)(F)F)cc1 [Example 2-13] | < 0.01 | – | – |
| CCOC(=O)C(COC(=O)Oc1ccc(NC(=O)c2ccc(C)cc2-c2ccc(C(F)(F)F)cc2)c(C(=O)N(C)C)c1)(C(=O)OCC)c1cccs1 [Example 2-9] | < 0.01 | – | – |
| CCOC(=O)C(COC(=O)Oc1c(F)cc(NC(=O)c2ccccc2-c2ccc(C(F)(F)F)cc2)c(C(=O)N(C)CCO)c1F)(C(=O)OCC)c1cccs1 [Example 2-45] | 0.1 to 1 | – | – |
| CCOC(=O)C(COC(=O)Oc1c(F)cc(NC(=O)c2ccc(OC)cc2-c2ccc(C(F)(F)F)cc2)c(C(=O)N(C)C)c1F)(C(=O)OCC)c1cccs1 [Example 2-37] | 0.01 to 0.1 | – | – |
